Test results: BindingDB's records for doi:10.1016/j.chembiol.2010.02.007 (Harvard Medical School, 2010)

How the values were obtained:
Experiment in all cases: In Vitro Activity Kinase Assay
[1] = target: Vascular endothelial growth factor receptor 2 (Homo sapiens, UniProt P35968)
Method: (§1) In vitro kinase assay profiled against a panel of different kinase binding assay using Ambit kinomeScan technology. Biochemical IC50 values were determined using the Z'-lyte assays format from Invitrogen.

[2] = target: Tyrosine-protein kinase Blk (Homo sapiens, UniProt P51451)
Method: as §1

[3] = target: Fibroblast growth factor receptor 4 (Homo sapiens, UniProt P22455)
Method: as §1

[4] = target: Mitogen-activated protein kinase 7 (Homo sapiens, UniProt Q13164)
Method: as §1

[5] = target: Vascular endothelial growth factor receptor 1 (Homo sapiens, UniProt P17948)
Method: as §1

[6] = target: Fibroblast growth factor receptor 3 (Homo sapiens, UniProt P22607)
Method: as §1

[7] = target: Mast/stem cell growth factor receptor Kit (Homo sapiens, UniProt P10721)
Method: as §1

[8] = target: Vascular endothelial growth factor receptor 3 (Homo sapiens, UniProt P35916)
Method: as §1

[9] = target: Fibroblast growth factor receptor 1 (Homo sapiens, UniProt P11362)
Method: as §1

[10] = target: Fibroblast growth factor receptor 2 (Homo sapiens, UniProt P21802)
Method: as §1

[11] = target: Hepatocyte growth factor receptor (Homo sapiens, UniProt P08581)
Method: as §1

[12] = target: Platelet-derived growth factor receptor beta (Homo sapiens, UniProt P09619)
Method: as §1

Chain of Mitogen-activated protein kinase 7 (Q13164 whole entry): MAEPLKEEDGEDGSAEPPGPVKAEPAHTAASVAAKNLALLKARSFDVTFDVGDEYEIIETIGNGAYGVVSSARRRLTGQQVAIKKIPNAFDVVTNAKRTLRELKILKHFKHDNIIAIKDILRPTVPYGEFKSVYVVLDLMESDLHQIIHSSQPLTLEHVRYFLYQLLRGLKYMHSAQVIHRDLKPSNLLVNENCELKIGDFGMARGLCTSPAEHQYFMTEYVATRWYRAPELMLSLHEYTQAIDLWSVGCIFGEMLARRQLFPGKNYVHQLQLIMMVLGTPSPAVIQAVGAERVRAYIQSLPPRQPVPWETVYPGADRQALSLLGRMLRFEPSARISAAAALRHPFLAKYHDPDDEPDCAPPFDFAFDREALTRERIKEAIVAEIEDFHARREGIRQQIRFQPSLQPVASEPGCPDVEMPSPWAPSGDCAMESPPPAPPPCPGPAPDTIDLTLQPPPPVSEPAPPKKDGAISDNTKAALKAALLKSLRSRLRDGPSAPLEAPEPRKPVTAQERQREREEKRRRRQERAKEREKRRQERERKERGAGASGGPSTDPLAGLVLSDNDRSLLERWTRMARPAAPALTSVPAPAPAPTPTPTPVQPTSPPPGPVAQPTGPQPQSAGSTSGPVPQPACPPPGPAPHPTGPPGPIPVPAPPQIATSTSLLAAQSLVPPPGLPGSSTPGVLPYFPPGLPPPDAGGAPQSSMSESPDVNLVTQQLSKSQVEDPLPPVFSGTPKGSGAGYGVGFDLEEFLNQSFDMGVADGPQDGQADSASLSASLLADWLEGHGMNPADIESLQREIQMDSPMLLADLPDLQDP
Chain of Fibroblast growth factor receptor 2 (P21802 whole entry): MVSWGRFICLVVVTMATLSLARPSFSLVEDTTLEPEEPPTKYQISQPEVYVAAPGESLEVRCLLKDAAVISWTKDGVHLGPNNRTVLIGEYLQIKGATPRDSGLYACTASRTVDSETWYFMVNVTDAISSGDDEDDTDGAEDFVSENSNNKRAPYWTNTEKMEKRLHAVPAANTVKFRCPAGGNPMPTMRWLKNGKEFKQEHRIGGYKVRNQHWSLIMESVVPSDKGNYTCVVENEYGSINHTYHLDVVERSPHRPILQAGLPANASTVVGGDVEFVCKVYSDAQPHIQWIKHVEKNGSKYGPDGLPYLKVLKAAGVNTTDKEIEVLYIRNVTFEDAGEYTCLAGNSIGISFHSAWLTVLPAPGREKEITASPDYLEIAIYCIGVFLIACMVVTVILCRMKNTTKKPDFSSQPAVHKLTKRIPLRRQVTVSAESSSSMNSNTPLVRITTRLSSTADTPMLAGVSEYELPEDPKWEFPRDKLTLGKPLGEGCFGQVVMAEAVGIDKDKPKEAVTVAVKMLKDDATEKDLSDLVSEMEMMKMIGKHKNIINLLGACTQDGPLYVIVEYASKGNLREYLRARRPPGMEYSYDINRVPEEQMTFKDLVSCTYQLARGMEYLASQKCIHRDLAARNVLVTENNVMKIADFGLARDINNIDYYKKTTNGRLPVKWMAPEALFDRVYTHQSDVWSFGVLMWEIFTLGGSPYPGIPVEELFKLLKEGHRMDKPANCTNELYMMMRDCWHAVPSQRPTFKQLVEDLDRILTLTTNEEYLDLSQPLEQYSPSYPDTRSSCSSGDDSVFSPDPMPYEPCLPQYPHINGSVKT
Chain of Fibroblast growth factor receptor 4 (P22455 whole entry): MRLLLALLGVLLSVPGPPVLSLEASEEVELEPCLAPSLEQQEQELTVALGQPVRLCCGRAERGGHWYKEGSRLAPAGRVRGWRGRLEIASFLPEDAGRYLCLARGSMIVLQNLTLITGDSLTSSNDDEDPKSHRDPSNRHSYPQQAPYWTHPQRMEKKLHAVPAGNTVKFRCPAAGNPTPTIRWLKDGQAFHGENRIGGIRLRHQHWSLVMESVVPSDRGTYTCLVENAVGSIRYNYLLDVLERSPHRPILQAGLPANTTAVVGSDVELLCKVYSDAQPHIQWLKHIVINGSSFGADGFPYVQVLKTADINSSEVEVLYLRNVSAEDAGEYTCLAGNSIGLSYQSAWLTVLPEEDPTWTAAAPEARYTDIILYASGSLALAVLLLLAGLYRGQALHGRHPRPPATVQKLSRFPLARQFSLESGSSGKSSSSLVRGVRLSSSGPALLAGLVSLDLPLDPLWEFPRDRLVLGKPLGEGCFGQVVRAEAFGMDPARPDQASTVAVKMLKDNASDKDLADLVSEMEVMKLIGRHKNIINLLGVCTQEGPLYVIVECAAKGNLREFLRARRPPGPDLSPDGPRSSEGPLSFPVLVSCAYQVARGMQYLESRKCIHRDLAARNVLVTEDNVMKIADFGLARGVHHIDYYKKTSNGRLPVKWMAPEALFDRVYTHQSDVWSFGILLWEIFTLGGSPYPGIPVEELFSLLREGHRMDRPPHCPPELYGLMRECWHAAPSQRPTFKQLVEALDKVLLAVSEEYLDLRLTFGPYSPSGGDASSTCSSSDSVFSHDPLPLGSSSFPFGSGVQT
Chain of Mast/stem cell growth factor receptor Kit (P10721 whole entry): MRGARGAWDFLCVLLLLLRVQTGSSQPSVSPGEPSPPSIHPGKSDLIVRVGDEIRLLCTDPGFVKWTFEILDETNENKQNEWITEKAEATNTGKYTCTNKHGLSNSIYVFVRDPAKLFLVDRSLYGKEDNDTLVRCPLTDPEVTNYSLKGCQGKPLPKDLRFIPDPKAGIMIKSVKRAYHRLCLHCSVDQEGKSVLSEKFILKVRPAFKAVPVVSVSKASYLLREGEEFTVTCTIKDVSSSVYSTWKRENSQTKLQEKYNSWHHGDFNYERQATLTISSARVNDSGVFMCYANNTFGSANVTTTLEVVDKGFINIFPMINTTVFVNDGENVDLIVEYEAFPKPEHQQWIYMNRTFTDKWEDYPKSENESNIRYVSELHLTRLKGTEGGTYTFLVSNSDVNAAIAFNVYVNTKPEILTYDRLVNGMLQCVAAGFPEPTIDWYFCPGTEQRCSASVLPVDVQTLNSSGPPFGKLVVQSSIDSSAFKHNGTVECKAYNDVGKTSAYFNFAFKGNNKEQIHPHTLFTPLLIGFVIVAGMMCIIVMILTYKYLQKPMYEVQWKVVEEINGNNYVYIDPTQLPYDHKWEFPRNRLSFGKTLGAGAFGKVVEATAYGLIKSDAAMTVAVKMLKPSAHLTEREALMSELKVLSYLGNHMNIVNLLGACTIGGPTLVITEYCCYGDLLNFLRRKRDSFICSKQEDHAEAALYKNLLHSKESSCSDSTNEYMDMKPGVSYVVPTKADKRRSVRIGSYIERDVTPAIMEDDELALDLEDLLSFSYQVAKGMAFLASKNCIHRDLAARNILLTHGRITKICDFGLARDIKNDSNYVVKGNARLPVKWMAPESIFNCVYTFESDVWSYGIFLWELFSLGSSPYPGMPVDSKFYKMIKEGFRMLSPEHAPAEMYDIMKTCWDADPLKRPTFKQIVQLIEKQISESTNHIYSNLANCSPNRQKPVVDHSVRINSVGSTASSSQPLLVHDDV
Chain of Hepatocyte growth factor receptor (P08581 whole entry): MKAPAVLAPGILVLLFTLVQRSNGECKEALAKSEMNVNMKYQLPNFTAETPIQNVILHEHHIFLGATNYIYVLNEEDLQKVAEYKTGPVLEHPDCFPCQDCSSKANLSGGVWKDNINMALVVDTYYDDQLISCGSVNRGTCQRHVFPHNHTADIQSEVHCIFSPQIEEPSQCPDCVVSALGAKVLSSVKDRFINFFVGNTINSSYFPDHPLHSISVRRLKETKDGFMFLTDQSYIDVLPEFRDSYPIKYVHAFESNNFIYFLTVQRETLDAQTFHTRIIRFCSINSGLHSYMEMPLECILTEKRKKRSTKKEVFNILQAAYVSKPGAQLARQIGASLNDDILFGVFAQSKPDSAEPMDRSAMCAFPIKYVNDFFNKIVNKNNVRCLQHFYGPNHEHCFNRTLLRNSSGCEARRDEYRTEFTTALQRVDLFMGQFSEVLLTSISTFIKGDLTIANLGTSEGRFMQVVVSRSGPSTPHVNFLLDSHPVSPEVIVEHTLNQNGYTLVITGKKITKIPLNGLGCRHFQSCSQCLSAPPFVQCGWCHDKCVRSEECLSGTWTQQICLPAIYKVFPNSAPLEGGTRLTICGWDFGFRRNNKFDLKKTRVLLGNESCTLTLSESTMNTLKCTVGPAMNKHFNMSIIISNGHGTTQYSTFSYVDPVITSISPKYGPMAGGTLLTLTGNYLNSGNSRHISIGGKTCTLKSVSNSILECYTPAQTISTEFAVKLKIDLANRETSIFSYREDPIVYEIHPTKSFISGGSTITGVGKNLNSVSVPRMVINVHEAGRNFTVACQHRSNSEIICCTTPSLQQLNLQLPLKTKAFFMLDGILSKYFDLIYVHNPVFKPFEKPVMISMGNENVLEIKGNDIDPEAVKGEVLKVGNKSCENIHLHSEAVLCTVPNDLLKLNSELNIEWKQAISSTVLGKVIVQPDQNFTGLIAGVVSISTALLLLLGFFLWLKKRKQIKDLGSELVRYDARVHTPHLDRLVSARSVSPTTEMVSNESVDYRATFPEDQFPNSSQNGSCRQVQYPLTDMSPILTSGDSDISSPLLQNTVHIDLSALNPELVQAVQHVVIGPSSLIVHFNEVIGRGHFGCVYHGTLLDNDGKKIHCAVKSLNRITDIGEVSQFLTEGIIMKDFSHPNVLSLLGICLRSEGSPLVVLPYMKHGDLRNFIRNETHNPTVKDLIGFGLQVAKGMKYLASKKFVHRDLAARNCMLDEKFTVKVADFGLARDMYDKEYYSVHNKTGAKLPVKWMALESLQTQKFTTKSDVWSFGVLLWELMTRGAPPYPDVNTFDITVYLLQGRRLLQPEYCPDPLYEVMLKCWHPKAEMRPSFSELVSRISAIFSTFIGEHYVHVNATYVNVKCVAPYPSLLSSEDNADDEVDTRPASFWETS

Kd [1]: 470 nM | Kd [2]: 2300 nM | Kd [3]: 280 nM | Kd [4]: 130 nM | Kd [5]: 49 nM | Kd [6]: 5.4 nM | Kd [7]: 250 nM | Kd [8]: 340 nM | Kd [9]: 3.1 nM | Kd [10]: 5.6 nM | Kd [11]: 1400 nM | Kd [12]: 480 nM
SMILES: CCNCCCCNc1ncc2c(n1)N(Cc1cccc(NC(=O)CC)c1)C(=O)N(c1c(Cl)c(OC)cc(OC)c1Cl)C2 [FRIN-1]
